Where two headings read alike, the source gives them in different places.
Columns and labels:
[1] = biological target: T1, beta-catenin/TCF4 engagement (Homo sapiens, UniProt P35222); assay: Nano-BRET target engagement assay (B-cat-Halo & TCF4-Luc in HEK293 cells); assay type: cell-based; conditions: read-out: NanoBRET Abs IC50
T1 construct: expressed in transfected cells; host or cells: HEK293
T1 sequence (P35222 1-781): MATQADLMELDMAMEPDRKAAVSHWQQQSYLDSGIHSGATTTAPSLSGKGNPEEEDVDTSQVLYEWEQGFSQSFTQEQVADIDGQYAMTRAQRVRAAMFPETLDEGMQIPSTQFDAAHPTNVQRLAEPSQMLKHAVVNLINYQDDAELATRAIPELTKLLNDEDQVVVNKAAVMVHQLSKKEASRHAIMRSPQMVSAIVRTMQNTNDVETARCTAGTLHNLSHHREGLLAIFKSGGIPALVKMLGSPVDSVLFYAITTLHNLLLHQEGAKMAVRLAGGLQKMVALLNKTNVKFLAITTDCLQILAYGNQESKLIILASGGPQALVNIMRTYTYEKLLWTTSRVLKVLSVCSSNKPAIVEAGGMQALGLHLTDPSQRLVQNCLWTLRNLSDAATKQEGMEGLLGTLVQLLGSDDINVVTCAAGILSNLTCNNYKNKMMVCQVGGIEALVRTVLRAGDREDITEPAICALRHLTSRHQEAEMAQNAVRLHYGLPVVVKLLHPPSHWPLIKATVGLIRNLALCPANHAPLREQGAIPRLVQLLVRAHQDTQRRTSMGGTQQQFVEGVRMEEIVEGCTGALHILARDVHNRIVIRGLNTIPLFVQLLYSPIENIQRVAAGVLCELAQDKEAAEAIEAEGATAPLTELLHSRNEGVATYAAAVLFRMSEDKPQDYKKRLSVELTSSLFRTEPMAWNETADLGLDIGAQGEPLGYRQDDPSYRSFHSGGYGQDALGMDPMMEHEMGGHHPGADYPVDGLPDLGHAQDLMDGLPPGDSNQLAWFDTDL

[2] = biological target: T2, full-length beta-Catenin (Uniprot ID P35222) (Homo sapiens, UniProt P35222); assay: Fluorescence polarization IC50 (beta-catenin / 5FAM-TCF4 10-53 competition); assay type: binding; conditions: fluorescence polarization; read-out: beta-Catenin FP IC50
T2 construct: 10 nM full-length beta-Catenin (Uniprot ID P35222)
T2 sequence (P35222 1-781): T1 sequence (P35222 1-781)

Row | SMILES | IC50 ([1]; absolute IC50) [nM] | IC50 [2] [nM] | IC50 [1] [nM]
1 | CC(=O)N1CCC[C@]12CC=CCCCC1(CCCC=CCOC(=O)N3CC(C(=O)N[C@@H](Cc4ccsc4)C(=O)N[C@@H](Cc4csc5ccccc45)C(=O)N[C@@H](CCC(N)=O)C(N)=O)(C3)NC(=O)[C@H](CC(C)C)NC(=O)[C@H](Cc3ccccc3)NC(=O)[C@H](C)NC(=O)[C@H](C)NC(=O)[C@H](CC(=O)O)NC(=O)[C@H](CC(=O)O)NC1=O)NC(=O)[C@H](CC(C)(C)C)NC(=O)[C@H](CC(=O)O)NC2=O (stereo partly drawn) [I-1828, Ac-PL3-Asp-Npg-B5-Asp-Asp-Ala-Ala-Phe-Leu-Az-3Thi-BztA-Gln-NH2] | > 20000 | 264 | 
2 | CC(=O)N1CCC[C@]12CC=CCCCC1(CCCC=CCCCOC(=O)N3CC[C@@](C(=O)N[C@@H](Cc4ccccc4Cl)C(=O)N[C@@H](Cc4csc5ccccc45)C(=O)N[C@@H](CO)C(N)=O)(C3)NC(=O)[C@H](C(C)C)NC(=O)[C@H](Cc3ccccc3)NC(=O)[C@H](C)NC(=O)[C@H](C)NC(=O)[C@H](Cc3cccc(C(=O)O)c3)NC(=O)[C@H](CC(=O)O)NC1=O)NC(=O)[C@H](CC(C)(C)C)NC(=O)[C@H](CC(=O)O)NC2=O (stereo partly drawn) [I-1850, Ac-PL3-Asp-Npg-B5-Asp-3COOHF-Ala-Ala-Phe-Val-PyrS2-2C1F-BztA-Ser-NH2] |  | 17 | 3800
3 | CC(=O)N1CCC[C@]12CC=CCCCC1(CCCC=CCCOC(=O)N3CC[C@@](C(=O)N[C@@H](Cc4ccsc4)C(=O)N[C@@H](Cc4csc5ccccc45)C(=O)N[C@@H](CCC(N)=O)C(N)=O)(C3)NC(=O)[C@H](CC(N)=O)NC(=O)[C@H](Cc3ccccc3)NC(=O)[C@H](C)NC(=O)[C@H](C)NC(=O)[C@H](CC(=O)O)NC(=O)[C@H](CC(=O)O)NC1=O)NC(=O)[C@H](CC(C)(C)C)NC(=O)[C@H](CC(=O)O)NC2=O (stereo partly drawn) [I-1813, Ac-PL3-Asp-Npg-B5-Asp-Asp-Ala-Ala-Phe-Asn-PyrS1-3Thi-BztA-Gln-NH2] | > 20000 | 26 | 
4 | CC(=O)N1CCC[C@H]1C(=O)N[C@]1(C)CCCCCCC2(CCCCCCCCOC(=O)N3CC[C@@](C(=O)N[C@@H](Cc4ccccc4C(F)(F)F)C(=O)N[C@@H](Cc4csc5ccccc45)C(=O)N[C@@H](CCC(N)=O)C(N)=O)(C3)NC(=O)[C@H](CC(C)C)NC(=O)[C@H](Cc3ccccc3)NC(=O)[C@H](C)NC(=O)[C@H](C)NC(=O)[C@H](Cc3cccc(C(=O)O)c3)NC(=O)[C@H](CC(=O)O)NC2=O)NC(=O)[C@H](CC(C)(C)C)NC(=O)[C@H](CC(=O)O)NC1=O (stereo partly drawn) [I-2572, Ac-Pro-R3-Asp-Npg-B5-Asp-3COOHF-Ala-Ala-Phe-Leu-PyrS2-2F3MeF-BztA-Gln-NH2] |  | 67 | > 20000
5 | CC(=O)N1CCC[C@]12CC=CCCCC1(CCCC=CCCCOC(=O)N3CC[C@@](C(=O)N[C@@H](Cc4ccsc4)C(=O)N[C@@H](Cc4csc5ccccc45)C(=O)N[C@@H](CCC(N)=O)C(N)=O)(C3)NC(=O)[C@H](CC(C)C)NC(=O)[C@H](Cc3ccccc3)NC(=O)[C@H](C)NC(=O)[C@H](C)NC(=O)[C@H](CCN(CC(=O)O)Cc3c(F)c(F)c(F)c(F)c3F)NC(=O)[C@H](CC(=O)O)NC1=O)NC(=O)[C@H](CC(C)(C)C)NC(=O)[C@H](CC(=O)O)NC2=O (stereo partly drawn) [I-1838, Ac-PL3-Asp-Npg-B5-Asp-[Pfbn]GAbu-Ala-Ala-Phe-Leu-PyrS2-3Thi-BztA-Gln-NH2] | 7900 | 85 | 
6 | CC(=O)N1CCC[C@]12CC=CCCCC1(CCCC=CCCCOC(=O)N3CC[C@@](C(=O)N[C@@H](Cc4ccccc4C(F)(F)F)C(=O)N[C@@H](Cc4ccc(Cl)cc4)C(=O)N[C@@H](CO)C(N)=O)(C3)NC(=O)[C@H](CC(C)C)NC(=O)[C@H](Cc3ccccc3)NC(=O)[C@H](C)NC(=O)[C@H](C)NC(=O)[C@H](Cc3cccc(C(=O)O)c3)NC(=O)[C@H](CC(=O)O)NC1=O)NC(=O)[C@H](CC(C)(C)C)NC(=O)[C@H](CC(=O)O)NC2=O (stereo partly drawn) [I-2222, Ac-PL3-Asp-Npg-B5-Asp-3COOHF-Ala-Ala-Phe-Leu-PyrS2-2F3MeF-4C1F-Ser-NH2] | 11700 | 84 | 
7 | CC(=O)N1CCC[C@]12CC=CCCCC1(CCCC=CCCCOC(=O)N3CC[C@@](C(=O)N[C@@H](Cc4ccsc4)C(=O)N[C@@H](Cc4csc5ccccc45)C(=O)N[C@@H](CCC(N)=O)C(N)=O)(C3)NC(=O)[C@H](CCO)NC(=O)[C@H](Cc3cccc(C(=O)O)c3)NC(=O)[C@H](C)NC(=O)[C@H](C)NC(=O)[C@H](CCc3ccc(O)cc3)NC(=O)[C@H](CC(=O)O)NC1=O)NC(=O)[C@H](CC(C)(C)C)NC(=O)[C@H](CC(=O)O)NC2=O (stereo partly drawn) [I-2116, Ac-PL3-Asp-Npg-B5-Asp-hTyr-Ala-Ala-3COOHF-Hse-PyrS2-3Thi-BztA-Gln-NH2] |  | 19 | 33400
8 | CC(=O)N1CCC[C@]12CC=CCCCC1(CCCC=CCCCOC(=O)N3CC[C@@](C(=O)N[C@@H](Cc4ccsc4)C(=O)N[C@@H](Cc4csc5ccccc45)C(=O)N[C@@H](CCC(N)=O)C(N)=O)(C3)NC(=O)[C@H](CC(N)=O)NC(=O)[C@H](Cc3ccccc3)NC(=O)[C@H](C)NC(=O)[C@H](C)NC(=O)[C@H]([C@@H](C)O)NC(=O)[C@H](CC(N)=O)NC1=O)NC(=O)[C@H](CC(C)(C)C)NC(=O)[C@H](CC(=O)O)NC2=O (stereo partly drawn) [I-1564, Ac-PL3-Asp-Npg-B5-Asn-Thr-Ala-Ala-Phe-Asn-PyrS2-3Thi-BztA-Gln-NH2] | > 20000 | 122 | 
9 | CC(=O)N1CCC[C@]12CC=CCCCCC1(CCCCC=CCCCOC(=O)N3CC[C@@](C(=O)N[C@@H](Cc4ccccc4C(F)(F)F)C(=O)N[C@@H](Cc4csc5ccccc45)C(=O)N[C@@H](C)C(N)=O)(C3)NC(=O)[C@H](CC(C)C)NC(=O)[C@H](Cc3ccccc3)NC(=O)[C@H](C)NC(=O)[C@H](CCC(N)=O)NC(=O)[C@H](Cc3cccc(C(=O)O)c3)NC(=O)[C@H](CC(=O)O)NC1=O)NC(=O)[C@H](CC(C)(C)C)NC(=O)[C@H](CC(=O)O)NC2=O (stereo partly drawn) [I-2515, Ac-PL3-Asp-Npg-B6-Asp-3COOHF-Gln-Ala-Phe-Leu-PyrS2-2F3MeF-BztA-Ala-NH2] | > 20000 | 1610 | 
10 | CC(=O)N1CCC[C@]12CC=CCCCC1(CCCC=CCCCOC(=O)N3CC[C@@](C(=O)N[C@@H](Cc4ccsc4)C(=O)N[C@@H](Cc4csc5ccccc45)C(=O)N[C@@H](CCC(N)=O)C(N)=O)(C3)NC(=O)[C@H](CC(C)C)NC(=O)[C@H](Cc3ccccc3)NC(=O)[C@H](C)NC(=O)[C@H](C)NC(=O)[C@H](CN(CC(=O)O)C(=O)c3c(F)c(F)c(F)c(F)c3F)NC(=O)[C@H](CC(=O)O)NC1=O)NC(=O)[C@H](CC(C)(C)C)NC(=O)[C@H](CC(=O)O)NC2=O (stereo partly drawn) [I-2242, Ac-PL3-Asp-Npg-B5-Asp-[PfBz]GA-Ala-Ala-Phe-Leu-PyrS2-3Thi-BztA-Gln-NH2] | 21400 | 13 | 
11 | C[C@@H]1NC(=O)[C@H](C)NC(=O)[C@H](CC(=O)O)NC(=O)[C@H](CC(=O)O)NC(=O)C2(CCCC=CCCCOC(=O)N3CC[C@@](C(=O)N[C@@H](Cc4ccsc4)C(=O)N[C@@H](Cc4csc5ccccc45)C(=O)N[C@@H](CCC(N)=O)C(N)=O)(C3)NC(=O)[C@H](CC(N)=O)NC(=O)[C@H](Cc3ccccc3)NC1=O)CCCC=CCOc1cccc(c1)C(=O)N[C@@H](CC(=O)O)C(=O)N[C@@H](CC(C)(C)C)C(=O)N2 (stereo partly drawn) [I-2306, BzAm3Oallyl-Asp-Npg-B5-Asp-Asp-Ala-Ala-Phe-Asn-PyrS2-3Thi-BztA-Gln-NH2] | > 20000 | 45 | 
12 | CC(=O)N1CCC[C@]12CC=CCCCC1(CCCC=CCCCOC(=O)N3CC[C@@](C(=O)N[C@@H](Cc4ccsc4)C(=O)N[C@@H](Cc4csc5ccccc45)C(=O)N[C@@H](C)C(N)=O)(C3)NC(=O)[C@H](CC(C)C)NC(=O)[C@H](Cc3ccccc3)NC(=O)[C@H](C)NC(=O)[C@H](C)NC(=O)[C@H](Cc3cccc(C(=O)O)c3)NC(=O)[C@H](CC(=O)O)NC1=O)NC(=O)[C@H](CC(C)(C)C)NC(=O)[C@H](CC(=O)O)NC2=O (stereo partly drawn) [I-2257, Ac-PL3-Asp-Npg-B5-Asp-3COOHF-Ala-Ala-Phe-Leu-PyrS2-3Thi-BztA-Ala-NH2] | 2900 | 15 | 
13 | CC(=O)N1CCC[C@]12CC=CCCCC1(CCCC=CCCCOC(=O)N3CC[C@@](C(=O)N[C@@H](Cc4ccsc4)C(=O)N[C@@H](Cc4csc5ccccc45)C(=O)N[C@@H](CCC(N)=O)C(N)=O)(C3)NC(=O)[C@H](CC(N)=O)NC(=O)[C@H](Cc3ccccc3)NC(=O)[C@H](C)NC(=O)[C@H](C)NC(=O)[C@H](CN(CC(=O)O)Cc3c(F)c(F)c(F)c(F)c3F)NC(=O)[C@H](CC(=O)O)NC1=O)NC(=O)[C@H](CC(C)(C)C)NC(=O)[C@H](CC(=O)O)NC2=O (stereo partly drawn) [I-1639, Ac-PL3-Asp-Npg-B5-Asp-[Pfbn]GA-Ala-Ala-Phe-Asn-PyrS2-3Thi-BztA-Gln-NH2] | 32900 | 13 | 

Reference: patent US20240116985A1, “STAPLED PEPTIDES AND METHODS THEREOF” (priority 2020, published 2024)
